Measured values as given in patent US9249134B2, “Process for preparation of amorphous form of dasatinib” (CADILA HEALTHCARE LIMITED, priority 2013, dated 2016).

Tests used:
[1] = in water or organic solvents like methanol, ethanol, propanol, isopropanol, butanol; even in the condition of heating; cited from earlier work
[2] = Solid-state stability of prior-art amorphous dasatinib under stability conditions; format: physicochemical; settings: amorphous dasatinib having higher residual solvents (prior art process), subjected to stability conditions
Procedure: Therefore, the prior art process provides amorphous dasatinib containing higher amount of residual solvent which is not suitable for pharmaceutical developments.
As used herein, the term “stable dasatinib” includes either: amorphous dasatinib that after exposure to a relative humidity of 75% at 40° C. or 60% at 25° C., for a period of at least three months contains less than about 0.5% (wt/wt) total impurities and doesn't change to crystalline form.

Row | solid form stability (amorphous to crystalline conversion) [2] | SMILES | solubility [1]
1 |  | Cc1nc(Nc2ncc(C(=O)Nc3c(C)cccc3Cl)s2)cc(N2CCN(CCO)CC2)n1 [Dasatinib, N-(2-chloro-6-methylphenyl)-2-[[6-[4-(2-hydroxyethyl)-1-piperazinyl]-2-methyl-4-pyrimidinyl]amino]-5-thiazolecarboxamide] | practically insoluble
2 | converts to crystalline form | Cc1nc(Nc2ncc(C(=O)Nc3c(C)cccc3Cl)s2)cc(N2CCN(CCO)CC2)n1 [amorphous dasatinib] | 
